Results: patent US8722849B2, “Polypeptides” (Novo Nordisk A/S, priority 2011, dated 2014)
Where two headings read alike, the source gives them in different places. Starred links: 1 amine or outer side, 2 acyl side, 3 side chain; linkers in the order of their positions; H or OH if unused. Positions of bridges follow the written chain, without caps; N, C: chain ends. Residues, ends and D or L forms follow the SMILES beside them. *: point of attachment. C20 diacid = O=C(O)CCCCCCCCCCCCCCCCCCC(=O)*; γGlu = O=C(O)[C@H](CCC(=O)[*:2])N[*:1]

What was measured:
[1] = molecular target: T1, human calcitonin receptor (Homo sapiens, UniProt P30988); experiment: Assay (II)a functional CRE-luciferase assay, human calcitonin receptor; assay type: cell-based; conditions: Table 7; human calcitonin (CTa) receptor
T1 construct: expressed in transfected cells; host or cells: BHK570
T1 sequence (P30988 25-474): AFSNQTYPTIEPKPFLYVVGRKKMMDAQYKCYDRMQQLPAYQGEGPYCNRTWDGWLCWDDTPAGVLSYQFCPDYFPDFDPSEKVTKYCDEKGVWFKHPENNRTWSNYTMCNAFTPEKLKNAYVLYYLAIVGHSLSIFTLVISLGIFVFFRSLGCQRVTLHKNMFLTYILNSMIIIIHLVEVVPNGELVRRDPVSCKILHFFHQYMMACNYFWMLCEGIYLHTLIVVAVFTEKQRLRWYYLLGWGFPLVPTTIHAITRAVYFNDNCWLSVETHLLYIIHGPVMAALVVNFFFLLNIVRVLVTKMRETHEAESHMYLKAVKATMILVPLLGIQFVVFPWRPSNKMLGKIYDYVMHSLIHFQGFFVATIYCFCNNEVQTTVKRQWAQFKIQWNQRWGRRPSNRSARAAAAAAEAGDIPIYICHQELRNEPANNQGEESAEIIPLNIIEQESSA

[2] = Assay (III) ThT fibrillation assay for physical stability; assay type: physicochemical
In short: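 Freshly prepared formulations, pH-adjusted, with 1 μM ThT; four or eight replicates incubated at 37 °C under 960 rpm orbital shaking. Fluorescence (ex 444/em 485 nm) read every 20 min; […]. Peptide concentration measured by RP-HPLC before and after the run.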

[3] = molecular target: T2, human amylin receptor (amylin 3(a) receptor: human calcitonin receptor + RAMP-3) (Homo sapiens, UniProt O60896+P30988); experiment: Assay (II)a functional CRE-luciferase assay, human amylin receptor; assay type: cell-based; conditions: Table 2; BHK amylin 3(a)-receptor/CRE-luc cells
T2 construct: expressed in transfected cells; host or cells: BHK570
T2 sequence (P30988 25-474): T1 sequence (P30988 25-474)
T2 sequence (O60896 24-148 partner): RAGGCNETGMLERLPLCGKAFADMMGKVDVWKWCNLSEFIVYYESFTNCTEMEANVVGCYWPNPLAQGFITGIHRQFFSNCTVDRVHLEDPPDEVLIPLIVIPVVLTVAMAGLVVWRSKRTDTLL

[4] = Assay (IV) determination of solubility; assay type: physicochemical
In short: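 Eight 100 mM buffers (glycylglycine pH 3.0–5.0, bistrispropane pH 6.0–8.0) each received an equal volume of polypeptide dissolved in water at ~500 nmol/ml. Soluble polypeptide was measured by HPLC following 18 hours at room temperature and centrifugation.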

[5] = bistrispropane buffer, pH 6, pH 6.0, read-out: Solubility pH 6.0
[6] = bistrispropane buffer, pH 6.5, pH 6.5, read-out: Solubility pH 6.5
[7] = bistrispropane buffer, pH 7, pH 7.0, 18 hours at room temperature, Table 3, read-out: Solubility pH 7.0
[8] = bistrispropane buffer, pH 7, pH 7.0, read-out: Solubility pH 7.0
[9] = bistrispropane buffer, pH 7.5, pH 7.5, read-out: Solubility pH 7.5
[10] = bistrispropane buffer, pH 8, pH 8.0, read-out: Solubility pH 8.0
[11] = glycylglycine buffer, pH 3, pH 3.0, read-out: Solubility pH 3.0
[12] = glycylglycine buffer, pH 4, pH 4.0, 18 hours at room temperature, Table 2, read-out: Solubility pH 4.0
[13] = glycylglycine buffer, pH 4, pH 4.0, read-out: Solubility pH 4.0
[14] = glycylglycine buffer, pH 5, pH 5.0, read-out: Solubility pH 5.0

EC50 [1] [nM]	ThT pH 4.0 lag time (h) ([2]; ThT fibrillation assay)	EC50 [3] [nM]	solubility at 18 h [4, 5] [µM]	solubility at 18 h [4, 6] [µM]	solubility at 18 h [4, 7] [µM]	solubility at 18 h [4, 8] [µM]	solubility at 18 h [4, 9] [µM]	solubility at 18 h [4, 10] [µM]	solubility at 18 h [4, 11] [µM]	solubility at 18 h [4, 12] [µM]	solubility at 18 h [4, 13] [µM]	solubility at 18 h [4, 14] [µM]	ThT pH 4.0 lag time ([2]; Table 8) [h]	ThT pH 4.0 lag time ([2]; Table 9) [h]	ThT pH 4.0 lag time ([2]; ThT fibrillation assay) [h]	solubility at 18 h ([4]; bistrispropane buffer, pH 7, pH 7.0, Table 8, read-out: Solubility pH 7.0) [µM]	solubility at 18 h ([4]; bistrispropane buffer, pH 7, pH 7.0, Table 9, read-out: Solubility pH 7.0) [µM]	solubility at 18 h ([4]; bistrispropane buffer, pH 7.5, pH 7.5, Table 9, read-out: Solubility pH 7.5) [µM]	SMILES
0.378	8.7	0.136	> 200	> 200	> 200	> 200	> 200	> 200	> 200	> 200	> 200	> 200							CC[C@H](C)[C@H](NC(=O)[C@@H]1CCCN1C(=O)CNC(=O)[C@H](Cc1ccccc1)NC(=O)[C@H](CC(N)=O)NC(=O)[C@H](CC(N)=O)NC(=O)[C@H](CO)NC(=O)[C@H](CO)NC(=O)[C@H](Cc1c[nH]cn1)NC(=O)[C@H](Cc1c[nH]cn1)NC(=O)[C@H](CC(C)C)NC(=O)[C@H](Cc1ccccc1)NC(=O)[C@H](CCC(=O)O)NC(=O)[C@H](C)NC(=O)[C@H](CC(C)C)NC(=O)[C@H](CCCNC(=N)N)NC(=O)[C@H](CCC(N)=O)NC(=O)[C@@H](NC(=O)[C@H](C)NC(=O)[C@@H]1CSSC[C@H](NC(=O)[C@H](CCC(=O)O)NC(=O)[C@H](CCCNC(=N)N)NC(=O)[C@H](CCC(=O)O)NC(=O)CC[C@H](NC(=O)CCCCCCCCCCCCCCCCCCC(=O)O)C(=O)O)C(=O)N[C@@H](CC(N)=O)C(=O)N[C@@H]([C@@H](C)O)C(=O)N[C@@H](C)C(=O)N[C@@H]([C@@H](C)O)C(=O)N1)[C@@H](C)O)C(=O)N[C@@H](CC(C)C)C(=O)N1CCC[C@H]1C(=O)N1CCC[C@H]1C(=O)N[C@H](C(=O)N[C@@H](CC(N)=O)C(=O)N[C@H](C(=O)NCC(=O)N[C@@H](CO)C(=O)N[C@@H](CC(N)=O)C(=O)N[C@H](C(=O)N1CCC[C@H]1C(N)=O)[C@@H](C)O)C(C)C)[C@@H](C)O [Example 123, N-alpha-[(S)-4-Carboxy-4-(19-carboxynonadecanoylamino)butyryl]-Glu-Arg-[Glu1,Glu14,His17,Pro37]-pramlintide] ({C20 diacid-γGlu}-ERECNTATCATQRLAEFLHHSSNNFGPILPPTNVGSNTP-NH2; disulfide 4-9 (inferred))
0.367	>45	0.0895	> 200	> 200	> 200	> 200	> 200	> 200	> 200	> 200	> 200	> 200	>45	>45	>45	> 200	> 200	> 200	CC[C@H](C)[C@H](NC(=O)[C@@H]1CCCN1C(=O)CNC(=O)[C@H](Cc1ccccc1)NC(=O)[C@H](CC(N)=O)NC(=O)[C@H](CC(N)=O)NC(=O)[C@H](CO)NC(=O)[C@H](CO)NC(=O)[C@H](Cc1c[nH]cn1)NC(=O)[C@H](CCCNC(=N)N)NC(=O)[C@H](CC(C)C)NC(=O)[C@H](Cc1ccccc1)NC(=O)[C@H](CCC(=O)O)NC(=O)[C@H](C)NC(=O)[C@H](CC(C)C)NC(=O)[C@H](CCCNC(=N)N)NC(=O)[C@H](CCC(N)=O)NC(=O)[C@@H](NC(=O)[C@H](C)NC(=O)[C@@H]1CSSC[C@H](NC(=O)[C@H](CCC(=O)O)NC(=O)[C@H](CCCNC(=N)N)NC(=O)[C@H](CCC(=O)O)NC(=O)CC[C@H](NC(=O)CCCCCCCCCCCCCCCCCCC(=O)O)C(=O)O)C(=O)N[C@@H](CC(N)=O)C(=O)N[C@@H]([C@@H](C)O)C(=O)N[C@@H](C)C(=O)N[C@@H]([C@@H](C)O)C(=O)N1)[C@@H](C)O)C(=O)N[C@@H](CC(C)C)C(=O)N1CCC[C@H]1C(=O)N1CCC[C@H]1C(=O)N[C@H](C(=O)N[C@@H](CC(N)=O)C(=O)N[C@H](C(=O)NCC(=O)N[C@@H](CO)C(=O)N[C@@H](CC(N)=O)C(=O)N[C@H](C(=O)N1CCC[C@H]1C(N)=O)[C@@H](C)O)C(C)C)[C@@H](C)O [Example 124, N-alpha-[(S)-4-Carboxy-4-(19-carboxynonadecanoylamino)butyryl]-Glu-Arg-[Glu1,Glu14,Arg17,Pro37]-pramlintide] ({C20 diacid-γGlu}-ERECNTATCATQRLAEFLRHSSNNFGPILPPTNVGSNTP-NH2; disulfide 4-9 (inferred))
0.443	19	0.288	> 200	> 200	> 200	> 200	> 200	> 200	> 200	> 200	> 200	> 200							CC[C@H](C)[C@H](NC(=O)[C@@H]1CCCN1C(=O)CNC(=O)[C@H](Cc1ccccc1)NC(=O)[C@H](CC(N)=O)NC(=O)[C@H](CC(N)=O)NC(=O)[C@H](CO)NC(=O)[C@H](CO)NC(=O)[C@H](Cc1c[nH]cn1)NC(=O)[C@H](Cc1c[nH]cn1)NC(=O)[C@H](CC(C)C)NC(=O)[C@H](Cc1ccccc1)NC(=O)[C@H](CCC(=O)O)NC(=O)[C@H](C)NC(=O)[C@H](CC(C)C)NC(=O)[C@H](CCCNC(=N)N)NC(=O)[C@H](CCC(N)=O)NC(=O)[C@@H](NC(=O)[C@H](C)NC(=O)[C@@H]1CSSC[C@H](NC(=O)[C@H](CCC(=O)O)NC(=O)[C@H](CCCNC(=N)N)NC(=O)[C@H](CCC(=O)O)NC(=O)[C@H](CCC(=O)O)NC(=O)CCCCCCCCCCCCCCCCCCC(=O)O)C(=O)N[C@@H](CC(N)=O)C(=O)N[C@@H]([C@@H](C)O)C(=O)N[C@@H](C)C(=O)N[C@@H]([C@@H](C)O)C(=O)N1)[C@@H](C)O)C(=O)N[C@@H](CC(C)C)C(=O)N1CCC[C@H]1C(=O)N1CCC[C@H]1C(=O)N[C@H](C(=O)N[C@@H](CC(N)=O)C(=O)N[C@H](C(=O)NCC(=O)N[C@@H](CO)C(=O)N[C@@H](CC(N)=O)C(=O)N[C@H](C(=O)N1CCC[C@H]1C(N)=O)[C@@H](C)O)C(C)C)[C@@H](C)O [Example 125, N-alpha-(19-carboxynonadecanoyl)-Glu-Glu-Arg-[Glu1,Glu14,His17,Pro37]-pramlintide] ({C20 diacid}-EERECNTATCATQRLAEFLHHSSNNFGPILPPTNVGSNTP-NH2; disulfide 5-10 (inferred); C-terminus assumed)
